Here are results for 1 compound from patent US8697662B2, “Methods for treating Kaposi sarcoma” (PTC Therapeutics, Inc., priority 2009, dated 2014).

Data set [1] addresses human-ether-a-go-go-related gene (hERG) current (Homo sapiens, UniProt Q12809). Nature of the data set: Higher throughput hERG assay. In kind it is biochemical. (The hERG channel carries a current that helps repolarise heart muscle cells.)
The next data set deals with T1, CYP2C9 (Homo sapiens, UniProt P11712).
T1 construct: host or cells: human hepatic microsomes or human recombinant isoenzymes
T1 sequence (P11712 whole entry): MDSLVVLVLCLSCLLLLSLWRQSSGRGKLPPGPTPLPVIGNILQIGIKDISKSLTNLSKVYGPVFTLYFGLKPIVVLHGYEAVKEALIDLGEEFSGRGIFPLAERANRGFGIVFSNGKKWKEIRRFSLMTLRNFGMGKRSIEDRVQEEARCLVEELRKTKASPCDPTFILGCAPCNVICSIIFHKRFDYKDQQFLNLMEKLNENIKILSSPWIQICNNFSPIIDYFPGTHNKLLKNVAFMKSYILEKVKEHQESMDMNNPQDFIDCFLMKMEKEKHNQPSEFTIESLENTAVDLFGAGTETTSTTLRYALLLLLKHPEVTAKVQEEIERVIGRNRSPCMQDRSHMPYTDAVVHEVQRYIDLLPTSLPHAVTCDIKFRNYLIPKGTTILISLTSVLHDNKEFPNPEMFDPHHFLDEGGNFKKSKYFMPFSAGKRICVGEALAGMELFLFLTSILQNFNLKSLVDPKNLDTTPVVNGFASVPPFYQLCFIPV
Put plainly: CYP inhibition in human hepatic microsomes or recombinant isoenzymes: CYP2C9. In kind it is in vitro ADME. The source says: (§1) It is possible that in certain clinical trial subjects, such agents may need to be adjusted for dosing or replaced by alternative agents that are not metabolized by CYP2D6, particularly when such agents may have a low therapeutic index.

In data set [2] the test system is VEGF189 and VEGF206 isoforms. Put plainly: In-Cell Western and Western blot of matrix associated VEGF189/206 in HT1080 cells. In kind it is cell-based, human. The settings on record: normoxic, 48 hours. On the procedure: Experimental Design. HT1080 (human fibrosacoma) cell cultures were established under normoxic conditions (21% oxygen). HT1080 cells constitutively overproduce VEGF even under normoxic conditions. […] At the completion of treatment, the cells were washed and harvested. Cells were incubated with a primary antibody that recognizes the VEGF189 and VEGF206 isoforms. Infrared-dye labeled antibodies were applied secondarily, and the amounts of VEGF189 and VEGF206 were determined using the IN-CELL WESTERN® assay and ODYSSEY® infrared imaging system (Li-Cor, Lincoln, Nebr., USA); results are expressed as percentage inhibition relative to vehicle treated controls. Conventional Western blotting using the same primary antibody was also performed to confirm the presence of the matrix associated isoforms; for these experiments actin was used as a loading control. Actin is a ubiquitous housekeeping protein that is not known to be post transcriptionally regulated.

Another data set addresses T2, CYP3A4 (Homo sapiens, UniProt P08684).
T2 construct: host or cells: human hepatic microsomes or human recombinant isoenzymes
Nature of the data set: CYP inhibition in human hepatic microsomes or recombinant isoenzymes: CYP3A4. Type of data set: in vitro ADME.
Source text: as §1

Data set [3] can be described thus: In vitro plasma protein binding of 14C-radiolabeled Compound #10. In kind it is in vitro ADME, mice, rats, dogs, monkeys, and humans. The settings on record: 0.05 to 50 μg/mL.
The test system of another data set is MDA MB 468 xenografts. Nature of the data set: Tumor perfusion by DCE-MRI in MDA MB 468 xenografts. In kind it is in vivo, athymic nude mice. The conditions noted are these: 10 mg/kg oral QD. The source says:
Experimental Design. Dynamic contrast-enhanced magnetic resonance imaging can be used preclinically and clinically to evaluate the anatomy of soft tissues, including the identification and accurate measurement of tumor volumes. In addition, evaluation of the intratumoral pharmacokinetics of contrast agents containing gadolinium can be used to measure vascular permeability characteristics. Coupling gadopentetate dimeglumine gadolinium to a […] like bovine serum albumin can reveal information about the necrotic (non-perfused) and non-necrotic (perfused) tumor volumes, and the percentage of vascular blood volume relative to the perfused tumor volume (known as the fractional blood volume [fBV]). Use of a […] tracer, gadopentetate dimeglumine, can reveal information regarding the volume transfer coefficient (K^trans), a variable that represents a combination of vascular permeability, vascular surface area, and blood flow.
Before each DCE-MRI scan, mice were injected intravenously with gadolinium-containing contrast dyes (bovine serum albumin-gadopentetate dimeglumine conjugate at ˜0.03 mmol/kg followed by gadopentetate dimeglumine at ˜0.2 mmol/kg). Baseline DCE-MRI measurements were taken on Day −1, test Compounds were administered on Day 0 through Day 5, and additional DCE-MRI measurements were taken on Days 1, 3, and 5. Image analyses were conducted with customized software. Total tumor volumes were measured by semi-automatically segmenting a region of interest around an anatomical image of the tumor. Tumor volumes of necrotic and non-necrotic tissues were measured by applying the same semi-automated segmentation process to a contrast dyed image. fBV and K^trans were computed using a standard Kety PK model.

The test system of data set [4] is soluble VEGF121 and VEGF165 isoforms. Put plainly: ELISA of soluble VEGF121/165 production in HeLa cells under hypoxia or normoxia. Type of data set: cell-based, human. The method, then:
Experimental Design. HeLa (human cervical carcinoma) cell cultures were established under normoxic conditions (21% oxygen). HeLa cells increase VEGF production 4- to 5-fold in response to hypoxia. […] At the completion of treatment, the conditioned media were collected and the VEGF protein levels were assayed in an enzyme-linked immunosorbent assay (ELISA) with primary antibodies that recognize the soluble VEGF121 and VEGF165 isoforms (R & D Systems, Minneapolis, Minn., USA). To ensure that decreases in VEGF concentration were not due to cytotoxicity, cultures were assayed using a standard assay ([…]-GLO® Luminescent Cell Viability Assay; Promega, Madison, Wis., USA) that measures total cellular adenosine triphosphate (ATP) concentrations as an indicator of cell viability.
On the technique in general: In an ELISA, binding on a coated surface is turned into a signal by an enzyme label.

In a further data set the target is T3, CYP2D6 (Homo sapiens, UniProt P10635).
T3 construct: host or cells: human hepatic microsomes or human recombinant isoenzymes
T3 sequence (P10635 whole entry): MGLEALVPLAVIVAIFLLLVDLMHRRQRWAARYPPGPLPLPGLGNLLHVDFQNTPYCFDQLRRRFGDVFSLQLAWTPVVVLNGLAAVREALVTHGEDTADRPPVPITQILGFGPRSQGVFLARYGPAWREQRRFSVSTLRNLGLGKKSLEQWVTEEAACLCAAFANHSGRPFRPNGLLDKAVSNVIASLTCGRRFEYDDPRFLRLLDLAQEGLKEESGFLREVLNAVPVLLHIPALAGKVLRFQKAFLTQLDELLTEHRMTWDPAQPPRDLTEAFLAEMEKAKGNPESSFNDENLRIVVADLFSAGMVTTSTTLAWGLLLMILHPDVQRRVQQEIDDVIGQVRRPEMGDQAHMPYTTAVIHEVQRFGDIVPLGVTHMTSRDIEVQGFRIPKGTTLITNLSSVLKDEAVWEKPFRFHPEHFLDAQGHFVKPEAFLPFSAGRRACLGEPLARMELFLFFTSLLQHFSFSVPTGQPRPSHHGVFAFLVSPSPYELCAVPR
Put plainly: CYP inhibition in human hepatic microsomes or recombinant isoenzymes: CYP2D6. Type of data set: in vitro ADME.
Source text: as §1

Data set [5] can be described thus: Phase 1 escalating multiple-dose study in healthy volunteers: safety and tolerability. In kind it is in vivo. The settings on record: through the highest dose level tested ([…] TID). On the procedure: The study was performed under the oversight of the French health authorities. The study was not performed under an IND.
Methods. The trial was a Phase 1, randomized, escalating multiple dose, single center study conducted in 2 stages.

Data set [6] concerns SKNEP orthotopic xenografts. Put plainly: Orthotopic SKNEP Ewing sarcoma tumor model (kidney capsule), tumor weight. In kind it is in vivo. The settings on record: 5 weeks of treatment. The source says: (§2) Experimental Design. In orthotopic tumor models, human tumor cells are implanted into the mouse in an organ that corresponds to the location from which the tumors arise. Such models may provide a better predictor of clinical efficacy than injection of tumors into the flanks of nude mice. See Hoffman, Invest. New Drugs 1999, 17(4):343-59. SY5Y neuroblastoma or SKNEP Ewing sarcoma tumor cells (1×10^6 cells/mouse) were implanted into the kidney capsule of female athymic nude mice according to published methods. See Huang et al., Proc. Natl. Acad. Sci. USA 2003, 100(13):7785-90. One week after implantation of each type of tumor, mice were divided into 2 groups and were administered a test Compound as shown in Table 21.
(§3) After 5 weeks of treatment, the mice were sacrificed, and the weights of the tumors were assessed.

A short description of a further data set: in vivo. The settings on record: both, beagle, dog, po.
Data set [7] has as its system SY5Y orthotopic xenografts. Nature of the data set: Orthotopic SY5Y neuroblastoma tumor model (kidney capsule), tumor weight. The settings on record: 5 weeks of treatment. Type of data set: in vivo.
Source text: as §2, §3

The test system of data set [8] is bacterial reverse mutation. Nature of the data set: Bacterial reverse mutation study. The conditions noted are these: with and without exogenous metabolic activation. The method, then: Genotoxicity was assessed in a battery of in vitro and in vivo studies that included a bacterial reverse mutation study, a chromosome aberration study in Chinese hamster ovary (CHO) cells, and a micronucleus study in rats by the oral route. The in vitro studies were performed in the presence and absence of an exogenous metabolic activation system.

The term NOAEL denotes the highest tested level that showed no adverse finding.

Sequence of human-ether-a-go-go-related gene (hERG) current (Q12809 whole entry): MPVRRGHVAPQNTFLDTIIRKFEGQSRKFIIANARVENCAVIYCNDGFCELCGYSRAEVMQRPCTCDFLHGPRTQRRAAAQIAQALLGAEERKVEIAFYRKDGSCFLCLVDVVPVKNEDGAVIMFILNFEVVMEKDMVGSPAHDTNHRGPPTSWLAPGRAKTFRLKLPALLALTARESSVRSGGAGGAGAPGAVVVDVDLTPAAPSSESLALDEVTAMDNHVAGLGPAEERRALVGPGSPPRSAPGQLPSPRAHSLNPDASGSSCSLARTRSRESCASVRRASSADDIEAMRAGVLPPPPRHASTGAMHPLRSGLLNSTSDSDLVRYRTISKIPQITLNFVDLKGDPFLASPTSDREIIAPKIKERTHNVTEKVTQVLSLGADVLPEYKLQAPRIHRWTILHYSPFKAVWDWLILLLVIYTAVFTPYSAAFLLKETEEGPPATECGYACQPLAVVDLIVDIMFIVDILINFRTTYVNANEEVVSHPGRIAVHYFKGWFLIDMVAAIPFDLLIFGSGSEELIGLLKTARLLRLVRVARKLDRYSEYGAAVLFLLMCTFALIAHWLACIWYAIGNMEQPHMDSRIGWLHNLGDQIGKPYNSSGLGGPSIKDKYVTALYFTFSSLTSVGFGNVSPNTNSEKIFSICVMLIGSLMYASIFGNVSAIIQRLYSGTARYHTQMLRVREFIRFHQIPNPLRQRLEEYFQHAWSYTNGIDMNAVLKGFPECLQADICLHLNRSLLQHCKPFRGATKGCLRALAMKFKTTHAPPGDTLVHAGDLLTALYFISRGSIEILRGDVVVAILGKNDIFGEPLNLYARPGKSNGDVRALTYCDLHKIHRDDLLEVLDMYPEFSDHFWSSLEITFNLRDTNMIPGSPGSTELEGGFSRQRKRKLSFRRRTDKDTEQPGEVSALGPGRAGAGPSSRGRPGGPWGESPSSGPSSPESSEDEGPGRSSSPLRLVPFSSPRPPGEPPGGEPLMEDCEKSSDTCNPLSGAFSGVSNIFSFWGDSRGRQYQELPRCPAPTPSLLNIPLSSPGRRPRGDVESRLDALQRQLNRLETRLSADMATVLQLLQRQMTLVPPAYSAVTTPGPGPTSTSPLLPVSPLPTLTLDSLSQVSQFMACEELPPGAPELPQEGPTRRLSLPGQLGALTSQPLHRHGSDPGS
T2 sequence (P08684 whole entry): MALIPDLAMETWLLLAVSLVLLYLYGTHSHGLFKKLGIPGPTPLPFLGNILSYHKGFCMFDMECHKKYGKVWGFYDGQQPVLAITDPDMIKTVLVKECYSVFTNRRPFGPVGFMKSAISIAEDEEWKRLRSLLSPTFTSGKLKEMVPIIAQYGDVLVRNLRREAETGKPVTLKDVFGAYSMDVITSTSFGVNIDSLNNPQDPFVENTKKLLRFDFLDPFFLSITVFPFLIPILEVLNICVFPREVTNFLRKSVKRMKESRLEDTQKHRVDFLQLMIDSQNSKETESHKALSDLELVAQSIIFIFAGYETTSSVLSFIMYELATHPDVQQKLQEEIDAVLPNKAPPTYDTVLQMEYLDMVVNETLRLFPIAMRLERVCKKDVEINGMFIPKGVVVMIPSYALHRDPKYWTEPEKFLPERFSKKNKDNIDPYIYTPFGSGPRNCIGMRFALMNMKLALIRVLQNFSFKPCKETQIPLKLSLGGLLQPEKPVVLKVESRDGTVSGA
Experimental for in vivo: The L23 vehicle was used. […] All studies in the toxicology program were conducted according to GLP regulations.

Regarding `COc1ccc(C2c3[nH]c4ccc(Cl)cc4c3CCN2C(=O)Oc2ccc(Cl)cc2)cc1` (racemic) [Compound #10], the “inhibition of hERG current (in words)” value in [1] is “negative for meaningful inhibition”. The “inhibition of CYP2C9 (in words)” value on CYP2C9 is listed as “No meaningful inhibition”. The “inhibition of matrix associated VEGF189 and VEGF206 isoforms (in words)” value in [2] is “potent concentration-dependent inhibition”. For the same compound, the “inhibition of CYP3A4 (in words)” value on CYP3A4 is “No meaningful inhibition”. Moreover, the “concentration dependence of protein binding (in words)” value in [3] was “independent of concentration”. Further, in the data set on MDA MB 468 xenografts (Day -1 to Day 5), the “mean K^trans in non-necrotic tissue (in words)” value is “decreased”; the “mean non-necrotic tumor volume (in words)” value is reported as “decreased”; the “mean total tumor volume (DCE-MRI), change (in words)” value is given as “little mean change”. Moreover, the “mean necrotic (non perfused) tumor volume (in words)” value with MDA MB 468 xenografts (significant by Day 1) was “rapidly increased”. In addition, in the data set on MDA MB 468 xenografts (significant vs vehicle on Day 5), the “mean tumor fBV in non-necrotic tissue (in words)” value is “declined after Day 3”. Also, the “decrease in VEGF concentrations in conditioned media” value in data set [4] (normoxic, 48 hours) was found to be 39%. Further, the “inhibition of VEGF production (in words)” value in data set [4] (stress (hypoxia)-induced VEGF) is reported as “inhibit stress-induced VEGF production”. Besides, on CYP2D6, the “inhibition of CYP2D6 isoenzyme (in words)” value is “inhibits the activity”. For the same compound, in data set [5], the dose limiting toxicities entry is recorded as “no dose limiting toxicities were observed”. In addition, the “tumor growth (tumor weight) (in words)” value in data set [6] is “completely prevented growth”. In the data set “in vivo”, this compound displayed an NOAEL at 28 days of 30 mg/kg/day. The “tumor growth (tumor weight) (in words)” value in data set [7] is on record as “completely prevented growth”. In addition, in [8], the genotoxic effects entry was “no evidence of genotoxic effects”.
